Source: the supplement of paper PMC11061612

Legend:
Test in all cases: combination Emax (second highest fraction inhibited in the dose matrix, 72 h); higher = more inhibition; extreme values may be limits of the assay
[1] = test system: A498 (Kidney Carcinoma)
Method in brief: (§1)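 Bliss excess equals the observed combination effect minus the expected value EA + EB − EA·EB, where EA and EB are the effects of each agent alone. Combination Emax is the second-highest inhibition within the matrix. Inhibition was scaled from CellTiter-Glo 2.0 luminescence, with 0 set by vehicle wells and 1 by blank wells, after 72 hours of two-drug dosing of cells plated in 1536-well plates.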

[2] = test system: COLO-320-HSR (Colorectal Carcinoma)
Method in brief: as §1

[3] = test system: COR-L311 (Small Cell Lung Carcinoma)
Method in brief: as §1

[4] = test system: LN-405 (Glioblastoma)
Method in brief: as §1

[5] = test system: NCI-H1693 (Lung Adenocarcinoma)
Method in brief: as §1

[6] = test system: NCI-H2141 (Small Cell Lung Carcinoma)
Method in brief: as §1

Cc1cc2ncnn2cc1Nc1ncc2c(n1)n(C1CCOCC1)c(=O)n2C [AZD7648] + O=C(c1cc(Cc2n[nH]c(=O)c3ccccc23)ccc1F)N1CCN(C(=O)C2CC2)CC1 [Olaparib] (first compound max 10 µM, 7x7, partner max 10 µM)
combination Emax [1]: 0.441 | combination Emax [2]: 0.073 | combination Emax [3]: 0.456 | combination Emax [4]: 0.183 | combination Emax [5]: 0.172 | combination Emax [6]: 0.218

Cc1c2c(nn1C)CSCc1cc(n(C)n1)CSc1cc(c3ccccc3c1)OCCCc1c(C(=O)O)n(C)c3c-2c(Cl)ccc13 [AZD5991] + CN(C)CCCOc1ccc(-c2ccc3ncc4c(c3c2)n(C2CCOCC2)c(=O)n4C)cn1 [AZD0156] (first compound max 1 µM, 7x7, partner max 1 µM)
combination Emax [1]: 0.392 | combination Emax [2]: 0.888 | combination Emax [3]: 0.433 | combination Emax [4]: 0.376 | combination Emax [5]: 0.211 | combination Emax [6]: 0.265

CN(CCO)CC[C@H](CSc1ccccc1)Nc1ccc(S(=O)(=O)NC(=O)c2ccc(N3CCC([C@@H](O)c4ccccc4-c4ccc(Cl)cc4)CC3)cc2)cc1S(=O)(=O)C(F)(F)F [AZD4320] + Cc1cc2ncnn2cc1Nc1ncc2c(n1)n(C1CCOCC1)c(=O)n2C [AZD7648] (first compound max 1 µM, 7x7, partner max 10 µM)
combination Emax [1]: 0.37 | combination Emax [2]: 0.0909 | combination Emax [3]: 1 | combination Emax [4]: 0.36 | combination Emax [5]: 0.174 | combination Emax [6]: 0.829

NC1(C(=O)N[C@@H](CCO)c2ccc(Cl)cc2)CCN(c2ncnc3[nH]ccc23)CC1 [Capivasertib] + Cn1cnc2c(F)c(Nc3ccc(Br)cc3Cl)c(C(=O)NOCCO)cc21 [Selumetinib] (first compound max 10 µM, 7x7, partner max 10 µM)
combination Emax [1]: 0.799 | combination Emax [2]: 0.214 | combination Emax [3]: 0.625 | combination Emax [4]: 0.539 | combination Emax [5]: 0.44 | combination Emax [6]: 0.214

CCc1c2c(nc3ccc(O)cc13)-c1cc3c(c(=O)n1C2)COC(=O)[C@]3(O)CC [SN-38] + O=C(c1cc(Cc2n[nH]c(=O)c3ccccc23)ccc1F)N1CCN(C(=O)C2CC2)CC1 [Olaparib] (first compound max 0.3 µM, 7x7, partner max 10 µM)
combination Emax [1]: 0.598 | combination Emax [2]: 0.261 | combination Emax [4]: 0.413 | combination Emax [6]: 0.423

CN(CCO)CC[C@H](CSc1ccccc1)Nc1ccc(S(=O)(=O)NC(=O)c2ccc(N3CCC([C@@H](O)c4ccccc4-c4ccc(Cl)cc4)CC3)cc2)cc1S(=O)(=O)C(F)(F)F [AZD4320] + CN(C)CCCOc1ccc(-c2ccc3ncc4c(c3c2)n(C2CCOCC2)c(=O)n4C)cn1 [AZD0156] (first compound max 1 µM, 7x7, partner max 1 µM)
combination Emax [1]: 0.254 | combination Emax [2]: 0.01 | combination Emax [3]: 1 | combination Emax [4]: 0.275 | combination Emax [5]: 0.19 | combination Emax [6]: 0.801

Cc1nc(Nc2ncc(C(=O)Nc3c(C)cccc3Cl)s2)cc(N2CCN(CCO)CC2)n1 [Dasatinib] + CC(=O)Nc1cccc(-n2c(=O)n(C3CC3)c(=O)c3c(Nc4ccc(I)cc4F)n(C)c(=O)c(C)c32)c1 [Trametinib] (first compound max 2 µM, 7x7, partner max 1 µM)
combination Emax [1]: 0.503 | combination Emax [2]: 0.15 | combination Emax [3]: 0.0652 | combination Emax [4]: 0.468 | combination Emax [5]: 0.699 | combination Emax [6]: 0.129

COc1nnc2ccc(N3CCC(c4ccc(OCCN5CCN(C)C(=O)[C@H]5C)cc4)CC3)nn12 [AZD5153] + C=CCn1c(=O)c2cnc(Nc3ccc(N4CCN(C)CC4)cc3)nc2n1-c1cccc(C(C)(C)O)n1 [AZD1775] (first compound max 1 µM, partner max 1 µM)
combination Emax [1]: 0.534 | combination Emax [2]: 0.661 | combination Emax [3]: 0.946 | combination Emax [4]: 0.535 | combination Emax [5]: 0.565 | combination Emax [6]: 0.659

CC1(C)CCC(CN2CCN(c3ccc(C(=O)NS(=O)(=O)c4ccc(NCC5CCOCC5)c([N+](=O)[O-])c4)c(Oc4cnc5[nH]ccc5c4)c3)CC2)=C(c2ccc(Cl)cc2)C1 [Venetoclax] + C1CN(CCC1(C(=O)N[C@@H](CCO)C2=CC=C(C=C2)Cl)N)C3=NC=NC4=C3C=CN4 [Capivasertib] (first compound max 1 µM, 7x7, partner max 3 µM)
combination Emax [1]: 0.537 | combination Emax [2]: 0.0935 | combination Emax [3]: 0.842 | combination Emax [4]: 0.429 | combination Emax [5]: 0.197 | combination Emax [6]: 0.249

CC1(C)CCC(CN2CCN(c3ccc(C(=O)NS(=O)(=O)c4ccc(NCC5CCOCC5)c([N+](=O)[O-])c4)c(Oc4cnc5[nH]ccc5c4)c3)CC2)=C(c2ccc(Cl)cc2)C1 [Venetoclax] + C[C@@H]1COCCN1C2=NC(=NC(=C2)C3(CC3)[S@](=N)(=O)C)C4=C5C=CNC5=NC=C4 [AZD6738] (first compound max 1 µM, 7x7, partner max 10 µM)
combination Emax [1]: 0.514 | combination Emax [2]: 0.561 | combination Emax [3]: 0.694 | combination Emax [4]: 0.483 | combination Emax [5]: 0.372 | combination Emax [6]: 0.637

C[C@@H](c1ccc2nccn2c1)n1nnc2ncc(-c3cnn(C)c3)nc21 [Savolitinib] + Cc1c2c(nn1C)CSCc1cc(n(C)n1)CSc1cc(c3ccccc3c1)OCCCc1c(C(=O)O)n(C)c3c-2c(Cl)ccc13 [AZD5991] (first compound max 1 µM, 7x7, partner max 1 µM)
combination Emax [1]: 0.212 | combination Emax [2]: 0.779 | combination Emax [3]: 0.246 | combination Emax [4]: 0.256 | combination Emax [5]: 0.108 | combination Emax [6]: 0.234
